Measured values from US20220213063A1, “N-[l-(5-BROMO-2-PYRIMIDIN-2-YL-1,2,4-TRIAZOL-3-YL)ETHYL]-2-CYCLOPROPYL-6-(TRIFLUOROMETHYL)PYRIDINE-4-CARBOXAMIDE DERIVATIVES AND RELATED COMPOUNDS AS INSECTICIDES” (SYNGENTA CROP PROTECTION AG, priority 2019, published 2022).

Columns and labels:
Format in all cases: in vivo
[1] = tested on: Chilo suppressalis (Striped Rice Stemborer); assay: Example B4: Chilo suppressalis (striped rice stemborer), artificial diet; conditions: 144 h, application rate of 200 ppm, L2 larvae, 6 days after infestation, in comparison to untreated samples, read-out: control in at least one of the three categories (mortality, anti-feedant or growth inhibition)
Method: Example B4: Chilo suppressalis (Striped Rice Stemborer)
24-well microtiter plates with artificial diet were treated with aqueous test solutions prepared from 10'000 ppm DMSO stock solutions by pipetting. After drying, the plates were infested with L2 larvae (6-8 per well). The samples were assessed for mortality, anti-feeding effect, and growth inhibition in comparison to untreated samples 6 days after infestation. Control of Chilo suppressalis by a test sample is given when at least one of the categories mortality, anti-feedant effect, and growth inhibition is higher than the untreated sample.

[2] = tested on: Plutella xylostella (Diamond Back Moth); assay: Example B5: Plutella xylostella (diamond back moth), artificial diet; conditions: 192 h, application rate of 200 ppm, eggs, 8 days after infestation, in comparison to untreated samples, read-out: effect in at least one of the two categories (mortality or growth inhibition)
Method: Example B5: Plutella xylostella (Diamond Back Moth)
24-well microtiter plates with artificial diet were treated with aqueous test solutions prepared from 10'000 ppm DMSO stock solutions by pipetting. After drying, Plutella eggs were pipetted through a plastic stencil onto a gel blotting paper and the plate was closed with it. The samples were assessed for mortality and growth inhibition in comparison to untreated samples 8 days after infestation.
The following compounds gave an effect of at least 80% in at least one of the two categories (mortality or growth inhibition) at an application rate of 200 ppm: […]

[3] = tested on: Diabrotica Balteata (Corn Root Worm); assay: Example B1: Diabrotica balteata (corn root worm), sprayed maize sprouts; conditions: 96 h, application rate of 200 ppm, L2 larvae, 4 days after infestation, in comparison to untreated samples, read-out: control in at least one of the two categories (mortality or growth inhibition)
Method: Example B1: Diabrotica Balteata (Corn Root Worm)
Maize sprouts placed onto an agar layer in 24-well microtiter plates were treated with aqueous test solutions prepared from 10'000 ppm DMSO stock solutions by spraying. After drying, the plates were infested with L2 larvae (6 to 10 per well). The samples were assessed for mortality and growth inhibition in comparison to untreated samples 4 days after infestation.
The following compounds gave an effect of at least 80% control in at least one of the two categories (mortality or growth inhibition) at an application rate of 200 ppm: […]

[4] = tested on: Spodoptera littoralis (Egyptian Cotton Leaf Worm); assay: Example B9: Spodoptera littoralis (Egyptian cotton leaf worm), sprayed cotton leaf discs; conditions: foliar, 72 h, application rate of 200 ppm, L1 larvae, 3 days after infestation, in comparison to untreated samples, read-out: control in at least one of the three categories (mortality, anti-feedant effect, or growth inhibition)
Method: Example B9: Spodoptera littoralis (Egyptian Cotton Leaf Worm)
Cotton leaf discs were placed onto agar in 24-well microtiter plates and sprayed with aqueous test solutions prepared from 10'000 ppm DMSO stock solutions. After drying the leaf discs were infested with five L1 larvae. The samples were assessed for mortality, anti-feeding effect, and growth inhibition in comparison to untreated samples 3 days after infestation. Control of Spodoptera littoralis by a test sample is given when at least one of the categories mortality, anti-feedant effect, and growth inhibition is higher than the untreated sample.

[5] = tested on: Myzus persicae (Green Peach Aphid); assay: Example B8: Myzus persicae (green peach aphid), intrinsic activity; conditions: 120 h, test rate of 12 ppm, mixed with sucrose solution, 5 days after infestation
Excerpt: Example B8: Myzus persicae (Green Peach Aphid): Intrinsic Activity
Test compounds prepared from 10'000 ppm DMSO stock solutions were applied by pipette into 24-well microtiter plates and mixed with sucrose solution. The plates were closed with a stretched Parafilm. A plastic stencil with 24 holes was placed onto the plate and infested pea seedlings were placed directly on the Parafilm. The infested plate was closed with a gel blotting paper and another plastic stencil and then turned upside down. The samples were assessed for mortality 5 days after infestation.

[6] = tested on: Frankliniella occidentalis (Western Flower Thrips); assay: Example B3: Frankliniella occidentalis (western flower thrips), feeding/contact activity; conditions: 168 h, application rate of 200 ppm, population of mixed ages, 7 days after infestation
Method: Example B3: Frankliniella occidentalis (Western Flower Thrips):Feeding/Contact Activity
Sunflower leaf discs were placed on agar in 24-well microtiter plates and sprayed with aqueous test solutions prepared from 10'000 DMSO stock solutions. After drying the leaf discs were infested with a Frankliniella population of mixed ages. The samples were assessed for mortality 7 days after infestation.

CC(NC(=O)c1cc(C2CC2)cc(C(F)(F)F)c1)c1nc(Br)nn1-c1ccc(F)cn1 (stereo not shown) [Compound P8, N-[1-[5-bromo-2-(5-fluoro-2-pyridyl)-1,2,4-triazol-3-yl]ethyl]-3-cyclopropyl-5-(trifluoromethyl)benzamide]
≥ 80%: percent control (mortality, anti-feedant effect or growth inhibition) at 200 ppm [1] | percent effect (mortality or growth inhibition) at 200 ppm [2]

CC(NC(=O)c1cc(C2CC2C(F)(F)F)cc(C(F)(F)F)c1)c1nc(Br)nn1-c1ncccn1 (stereo not shown) [Compound P7, N-[1-(5-bromo-2-pyrimidin-2-yl-1,2,4-triazol-3-yl)ethyl]-3-(trifluoromethyl)-5-[2-(trifluoromethyl)cyclopropyl]benzamide]
≥ 80%: percent control (mortality or growth inhibition) at 200 ppm [3] | percent control (mortality, anti-feedant effect or growth inhibition) at 200 ppm [1] | percent effect (mortality or growth inhibition) at 200 ppm [2] | percent control (mortality, anti-feedant effect or growth inhibition) at 200 ppm [4]

CC(NC(=O)c1cc(C2CC2)cc(C(F)(F)F)c1)c1nc(Br)nn1-c1ncccn1 (stereo not shown) [Compound P6, N-[1-(5-bromo-2-pyrimidin-2-yl-1,2,4-triazol-3-yl)ethyl]-3-cyclopropyl-5-(trifluoromethyl)benzamide]
≥ 80%: percent control (mortality or growth inhibition) at 200 ppm [3] | percent control (mortality, anti-feedant effect or growth inhibition) at 200 ppm [1] | percent effect (mortality or growth inhibition) at 200 ppm [2] | percent control (mortality, anti-feedant effect or growth inhibition) at 200 ppm [4]

CC(NC(=O)c1cc(C(F)(F)F)nc(C2(C#N)CC2)c1)c1nc(Br)nn1-c1ccc(F)cn1 (stereo not shown) [Compound P1, N-[1-[5-bromo-2-(5-fluoro-2-pyridyl)-1,2,4-triazol-3-yl]ethyl]-2-(1-cyanocyclopropyl)-6-(trifluoromethyl)pyridine-4-carboxamide]
≥ 80%: percent control (mortality or growth inhibition) at 200 ppm [3] | percent control (mortality, anti-feedant effect or growth inhibition) at 200 ppm [1] | percent effect (mortality or growth inhibition) at 200 ppm [2] | percent control (mortality, anti-feedant effect or growth inhibition) at 200 ppm [4]

CC(NC(=O)c1cc(C(F)(F)F)cc(C(F)(F)C2CC2)c1)c1nc(Br)nn1-c1ncccn1 (stereo not shown) [Compound P4, N-[1-(5-bromo-2-pyrimidin-2-yl-1,2,4-triazol-3-yl)ethyl]-3-[cyclopropyl(difluoro)methyl]-5-(trifluoromethyl)benzamide]
≥ 80%: percent control (mortality or growth inhibition) at 200 ppm [3] | percent control (mortality, anti-feedant effect or growth inhibition) at 200 ppm [1] | percent effect (mortality or growth inhibition) at 200 ppm [2] | percent control (mortality, anti-feedant effect or growth inhibition) at 200 ppm [4]

CC(NC(=O)c1cc(C2CC2)nc(C(F)(F)F)c1)c1nc(Br)nn1-c1ncccn1 (stereo not shown) [Compound P5, N-[1-(5-bromo-2-pyrimidin-2-yl-1,2,4-triazol-3-yl)ethyl]-2-cyclopropyl-6-(trifluoromethyl)pyridine-4-carboxamide]
≥ 80%: percent control (mortality or growth inhibition) at 200 ppm [3] | percent control (mortality, anti-feedant effect or growth inhibition) at 200 ppm [1] | percent effect (mortality or growth inhibition) at 200 ppm [2] | percent control (mortality, anti-feedant effect or growth inhibition) at 200 ppm [4]

CC(NC(=O)c1cc(C(F)(F)F)nc(C2(C#N)CC2)c1)c1nc(Br)nn1-c1ncccn1 (stereo not shown) [Compound P3, N-[1-(5-bromo-2-pyrimidin-2-yl-1,2,4-triazol-3-yl)ethyl]-2-(1-cyanocyclopropyl)-6-(trifluoromethyl)pyridine-4-carboxamide]
≥ 80%: percent control (mortality or growth inhibition) at 200 ppm [3] | percent control (mortality, anti-feedant effect or growth inhibition) at 200 ppm [1] | mortality at 12 ppm [5] | percent effect (mortality or growth inhibition) at 200 ppm [2] | percent control (mortality, anti-feedant effect or growth inhibition) at 200 ppm [4] | mortality at 200 ppm [6]
